Values of other authors, collected in US20100183720A1, “Hetero-assembled hydrogels” (The Board of Trustees of the Leland Stanford Junior …, priority 2008, published 2010).

Target: T1, SH3 Domain cSRC (1 SH3 and 1 SH2) (Gallus gallus, UniProt P00523)
T1 construct: SH3 Domain
Settings: read-out: Dissociation constant, Kd

| Kd | Substance |
| --- | --- |
| 12 µM | RPLPPTPKY |
| 7.8 µM | RELPPLPRF |
| 13 µM | PYHPPLPRR |
| 9.6 µM | RELPPIPVF |

| Substance | Kd |
| --- | --- |
| RKLPPRPSK | 73 µM |

Target: T2, SH3 Domain (Homo sapiens, UniProt P27986)
T2 construct: SH3 Domain
T2 sequence (P27986 3-79 limits assumed): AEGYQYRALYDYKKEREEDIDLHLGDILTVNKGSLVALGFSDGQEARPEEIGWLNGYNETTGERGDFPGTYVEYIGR
Settings: read-out: Dissociation constant, Kd

| Kd | Substance |
| --- | --- |
| 37 ± 1 µM | RKAPPRPSK |
| 98 ± 0.2 µM | AKLPPRPSK |
| 12.8 ± 0.6 µM | RKLPPRP |
| 29 ± 2 µM | RKLPPAPSK |
| 16.5 ± 0.1 µM | RKLPARPSK |
| 53 ± 6 µM | RKLPPRASK |

More lines, now with the values behind:

| Substance | Kd |
| --- | --- |
| RALPPRPSK | 9.7 ± 0.2 µM |
| RPLPPRPSK | 9.1 ± 0.6 µM |
| RKLPPRPSK | 9.1 ± 0.6 µM |
| RKLAPRPSK | 140 ± 10 µM |

Target: T3, PABC Domain (Homo sapiens, UniProt P11940)
T3 construct: PABC Domain
T3 sequence (P11940 542-619 limits assumed): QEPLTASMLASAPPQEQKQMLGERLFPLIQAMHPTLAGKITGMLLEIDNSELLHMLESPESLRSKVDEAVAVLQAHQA
Settings: SPR; read-out: Dissociation constant, Kd (SPR Kd)

| Kd | Substance |
| --- | --- |
| 2.3 µM | VLMSKLSVNAPEFYPSGYSSSY |
| 3 µM | LVVKSNLPNAKEFVP |
| 3.1 µM | AKPFVPNVHAAEFVPSFLR |
| 0.16 µM | VVKSNLNPNAKEFVPGVKYGNI |

Further lines, the substance ahead of its results:

| Substance | Kd |
| --- | --- |
| SNLNPNAKEFVPGVKYG | 0.19 µM |
| AFSRQLNVNAKPFVPNVHAAEFVPSFLR | 1.3 µM |
| LVVKSNLNPNAKEF | 260 µM |
| AFSRQLNVNAKPFVPNVHA | 3.9 µM |

Target: T4, SH3 Domain PI3K (1 SH3 and 2 SH2) (Homo sapiens, UniProt P27986)
T4 construct: SH3 Domain
T4 sequence (P27986 3-79 limits assumed): as the sequence (P27986 3-79 limits assumed) above
Settings: read-out: Dissociation constant, Kd

| Kd | Substance |
| --- | --- |
| 13 µM | RYLPPRPMY |
| 13 µM | LNKPPLPKR |
| 17 µM | RALPPLPRY |

Continued, substance first:

| Substance | Kd |
| --- | --- |
| RKLPPRPAF | 11 µM |
| RKLPPRPSK | 9.1 µM |

Target: T5, Human YAP65 (Yes kinase-associated protein) WW Domain (Homo sapiens, UniProt P46937)
T5 construct: WW Domain
T5 sequence (P46937 171-204 limits assumed): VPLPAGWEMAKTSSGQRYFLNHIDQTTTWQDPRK
Settings: read-out: Dissociation constant, Kd (Binding constant)

| Kd | Substance |
| --- | --- |
| 118 ± 17 µM | SPPPPFTV |
| 52 ± 6 µM | GTPPPPYTVG |
| 47 ± 6 µM | SPPPYTV |
| 53 ± 17 µM | SAPPPYTV |
| 63 ± 17 µM | SPPPAYTV |

Target: model group I polyproline peptide
Settings: monomeric units of WW domain bound to model group I polyproline peptide; read-out: apparent dissociation constant

| Kd | Substance |
| --- | --- |
| 11.2 ± 1.2 µM | Nedd4.3: wild-type WW domain sequence (Protein Data Bank 1I5H), monomeric unit (PLPPGWEERTHTDGRVFFINHNIKKTQWEDPRMQ; Natural WW domain also called Nedd4.3 Kanelis, V., Rotin D. & Forman-Kay, JD (2001) Solution structure of a Nedd4 WW domain-ENaC peptide complex, Nat Struct Biol 8 407-12.) |

Target: T6, Human Tsg101 UEV domain (Homo sapiens, UniProt Q99816)
T6 construct: Human Tsg101 UEV domain
T6 sequence (Q99816 2-145 limits assumed): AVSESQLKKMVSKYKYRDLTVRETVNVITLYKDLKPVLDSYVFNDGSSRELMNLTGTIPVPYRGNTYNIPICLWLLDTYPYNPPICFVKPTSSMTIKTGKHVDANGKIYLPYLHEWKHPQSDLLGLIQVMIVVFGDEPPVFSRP
Settings: read-out: Dissociation constant, Kd (Binding constant)

| Substance | Kd |
| --- | --- |
| HIV-1 p6 protein: binding partner of Human Tsg101 UEV domain (LQSRPEPTAPPEESFRSGVETTTPPQKQEPIDKELYPLTSLRSLFGNDPSSQ; p6-gag; UniProt P04591 449-500, looked up) | 27 ± 5 µM |
